Earlier results as cited in US20090062268A1, “NOVEL INHIBITORS OF POLY(ADP-RIBOSE)POLYMERASE (PARP)” (LEAD THERAPEUTICS, INC., priority 2007, published 2009).
Like-named read-outs stand apart in the source and are kept apart here.

How the values were obtained:
PARP-1 = PARP-1 (Homo sapiens, UniProt P09874); details: Farmer et al., Nature 2005
[1] = system: BRCA2-deficient cell line V-C8; details: BRCA2-deficient V-C8 compared with the BRCA2 wild type control
CAPAN-1 cells = CAPAN-1 cells in DMEM with FCS (20% v/v), glutamine and antibiotics

Chain of PARP-1 (P09874 whole entry, species assumed): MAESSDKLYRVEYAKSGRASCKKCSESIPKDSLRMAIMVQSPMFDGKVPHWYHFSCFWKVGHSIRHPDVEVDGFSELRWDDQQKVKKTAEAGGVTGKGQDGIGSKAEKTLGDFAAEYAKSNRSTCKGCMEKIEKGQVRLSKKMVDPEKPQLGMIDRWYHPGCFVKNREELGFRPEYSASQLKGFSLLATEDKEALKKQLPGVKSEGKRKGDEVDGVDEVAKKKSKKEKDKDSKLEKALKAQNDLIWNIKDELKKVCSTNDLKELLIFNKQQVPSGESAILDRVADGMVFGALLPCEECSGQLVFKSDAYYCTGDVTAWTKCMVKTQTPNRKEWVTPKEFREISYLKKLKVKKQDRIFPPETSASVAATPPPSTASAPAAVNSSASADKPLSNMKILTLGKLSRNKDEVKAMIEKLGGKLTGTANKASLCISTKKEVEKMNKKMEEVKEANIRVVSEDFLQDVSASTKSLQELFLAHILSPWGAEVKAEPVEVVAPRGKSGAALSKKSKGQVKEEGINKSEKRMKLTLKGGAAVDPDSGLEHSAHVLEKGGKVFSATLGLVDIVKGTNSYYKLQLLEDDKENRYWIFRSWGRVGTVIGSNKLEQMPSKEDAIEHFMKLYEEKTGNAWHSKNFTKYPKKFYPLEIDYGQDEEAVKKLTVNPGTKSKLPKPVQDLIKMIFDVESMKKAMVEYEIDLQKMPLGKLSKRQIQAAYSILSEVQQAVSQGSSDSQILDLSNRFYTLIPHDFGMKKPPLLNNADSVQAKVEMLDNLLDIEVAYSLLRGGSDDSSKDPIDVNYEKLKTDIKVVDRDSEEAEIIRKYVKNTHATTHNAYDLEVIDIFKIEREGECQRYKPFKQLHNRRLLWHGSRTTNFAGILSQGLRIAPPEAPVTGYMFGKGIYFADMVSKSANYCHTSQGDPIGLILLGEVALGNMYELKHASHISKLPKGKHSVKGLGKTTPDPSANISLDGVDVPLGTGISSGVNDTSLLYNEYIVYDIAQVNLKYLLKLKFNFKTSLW

SMILES | Ki (PARP-1; PARP-1 inhibitor) [nM] | sensitivity in clonogenic survival assay [1] | sensitivity to PARP inhibition in clonogenic survival assay (CAPAN-1 cells) | in vivo efficacy, tumor growth (BRCA2-deficient tumors) | Ki (PARP-1; moderately potent PARP-1 inhibitor) [nM]
CN(C)Cc1ccc(-c2nc3cccc4c3n2CCNC4=O)cc1 [AG14361] | 5 | exhibited sensitivity |  |  | 
O=C1CCC(=O)N1c1cc(Cc2n[nH]c(=O)c3ccccc23)ccc1F [KU0058684] |  |  | showing sensitivity | in vivo efficacy in blocking the growth of BRCA2-deficient tumors | 
Cc1nc2c(O)cccc2c(=O)[nH]1 [NU1025] |  | exhibited sensitivity |  |  | 50
